Data: PMC10385824, “Antiproliferative and Tubulin-Destabilising Effects of 3-(Prop-1-en-2-yl)azetidin-2-Ones and Related Compounds in MCF-7 and MDA-MB-231 Breast Cancer Cells” (Pharmaceuticals, 2023)
Like-named read-outs stand apart in the source and are kept apart here.

Assays:
[1] = tested on: purified bovine brain tubulin; test: Tubulin polymerization assay (light scattering, BK006 kit); format: biochemical; conditions: compound at 10 μM; for Fold Reduction in Vmax: relative to vehicle
How it was run: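 Purified bovine brain tubulin (3 mg/mL) in PIPES 80 mM pH 6.9, EGTA, MgCl2, 1 mM GTP, 10% glycerol incubated at 37 °C with compound at 10 µM or vehicle (1% DMSO or EtOH). Assembly followed turbidimetrically at 340 nm; values are means of two independent assays.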

[2] = tested on: CCRF-CEM; test: NCI-60 SRB screen, leukemia; format: cell-based; conditions: Homo sapiens, 48 h
[3] = tested on: HL-60(TB); test: NCI-60 SRB screen, leukemia; format: cell-based, human; conditions: Homo sapiens
[4] = tested on: K-562; test: NCI-60 SRB screen, leukemia; format: cell-based, human; conditions: Homo sapiens, K562, 48 h
[5] = tested on: MOLT-4; test: NCI-60 SRB screen, leukemia; format: cell-based, human; conditions: Homo sapiens
[6] = tested on: RPMI-8226; test: NCI-60 SRB screen, leukemia; format: cell-based, human; conditions: Homo sapiens
[7] = tested on: SR; test: NCI-60 SRB screen, leukemia; format: cell-based, human; conditions: Homo sapiens, 48 h
[8] = tested on: NCI-H226; test: NCI-60 SRB screen, non-small cell lung cancer; format: cell-based; conditions: Homo sapiens
[9] = tested on: NCI-H332M; test: NCI-60 SRB screen, non-small cell lung cancer; format: cell-based; conditions: Homo sapiens, 48 h
[10] = tested on: NCI-H460; test: NCI-60 SRB screen, non-small cell lung cancer; format: cell-based, human; conditions: Homo sapiens
[11] = tested on: NCI-H552; test: NCI-60 SRB screen, non-small cell lung cancer; format: cell-based, human; conditions: Homo sapiens, 48 h
[12] = tested on: SF295; test: NCI-60 SRB screen, CNS cancer; format: cell-based, human; conditions: Homo sapiens
[13] = tested on: SF539; test: NCI-60 SRB screen, CNS cancer; format: cell-based, human; conditions: Homo sapiens
[14] = tested on: U251; test: NCI-60 SRB screen, CNS cancer; format: cell-based, human; conditions: Homo sapiens
[15] = tested on: DU-145; test: NCI-60 SRB screen, prostate cancer; format: cell-based, human; conditions: Homo sapiens
[16] = tested on: MDA-MB-435; test: NCI-60 SRB screen, melanoma; format: cell-based, human; conditions: Homo sapiens
[17] = tested on: SK-MEL-28; test: NCI-60 SRB screen, melanoma; format: cell-based, human; conditions: Homo sapiens
[18] = tested on: OVCAR-5; test: NCI-60 SRB screen, ovarian cancer; format: cell-based, human; conditions: Homo sapiens
[19] = tested on: NCI/ADR-RES; test: NCI-60 SRB screen, ovarian cancer; format: cell-based, human; conditions: Homo sapiens, 48 h
[20] = tested on: SK-OV-3; test: NCI-60 SRB screen, ovarian cancer; format: cell-based, human; conditions: Homo sapiens
[21] = tested on: SN12C; test: NCI-60 SRB screen, renal cancer; format: cell-based, human; conditions: Homo sapiens, 48 h
[22] = tested on: TK-10; test: NCI-60 SRB screen, renal cancer; format: cell-based, human; conditions: Homo sapiens
[23] = tested on: MDA-MB-231/ATCC; test: NCI-60 SRB screen, breast cancer; format: cell-based, human; conditions: Homo sapiens
[24] = tested on: HS 578T; test: NCI-60 SRB screen, breast cancer; format: cell-based; conditions: Homo sapiens, 48 h
[25] = tested on: T-47D; test: NCI-60 SRB screen, breast cancer; format: cell-based, human; conditions: Homo sapiens, T47D, 48 h
[26] = tested on: NCI 60 human cancer cell line panel; test: NCI 60 cell line screen (SRB), panel values; conditions: for CC50: read-out: Mean LC50; for IC (TGI (total growth inhibition)): read-out: Mean TGI
[27] = tested on: SNB-19; test: NCI-60 SRB screen, CNS cancer; format: cell-based, human; conditions: Homo sapiens, SNB-19, 48 h
[28] = five dose 0.01–100 µM, read-out: GI50
[29] = HL-60(TB), five dose 0.01–100 µM, 48 h
[30] = Homo sapiens, 60 cell, read-out: Mean GI50, mean over all NCI 60 cell lines
[31] = read-out: Mean GI50, mean over all NCI 60 cell lines

C=C(C)C1C(=O)N(c2cc(OC)c(OC)c(OC)c2)C1c1ccc(OC)c(N)c1 (stereo not drawn) [9s, 4-(3-Amino-4-methoxyphenyl)-1-(3,4,5-trimethoxyphenyl)-3-(prop-1-en-2-yl)azetidin-2-one]
Fold Reduction in Vmax [1]: 2.66
GI50 [2, 28]: 37.7 nM
GI50 [3, 29]: 28.3 nM
GI50 ([3]; HL-60, NCI screen): < 34 nM
GI50 ([4]; read-out: GI50): 38.3 nM
GI50 ([5]; MOLT-4, five dose 0.01–100 µM, 48 h, read-out: GI50): 37.2 nM
GI50 ([6]; RPMI-8226, five dose 0.01–100 µM, 48 h, read-out: GI50): 35.9 nM
GI50 [7, 28]: 30.4 nM
GI50 ([8]; NCI-H226, five dose 0.01–100 µM, 48 h, read-out: GI50): 43.5 nM
GI50 [9, 28]: 51.1 nM
GI50 ([10]; NCI-H460, five dose 0.01–100 µM, 48 h, read-out: GI50): 33.2 nM
GI50 ([11]; NCI-H552, five dose 0.01–100 µM, read-out: GI50): 14.6 nM
GI50 ([12]; SF-295, SF295, five dose 0.01–100 µM, 48 h, read-out: GI50): 34.4 nM
GI50 ([13]; SF-539, SF539, five dose 0.01–100 µM, 48 h, read-out: GI50): 40.2 nM
GI50 ([14]; U-251, U251, five dose 0.01–100 µM, 48 h, read-out: GI50): 37.5 nM
GI50 ([15]; DU-145, five dose 0.01–100 µM, 48 h, read-out: GI50): 23.6 nM
GI50 ([16]; MDA-MB-435, five dose 0.01–100 µM, 48 h, read-out: GI50): 26 nM
GI50 ([17]; SK-MEL-28, five dose 0.01–100 µM, 48 h, read-out: GI50): > 100000 nM
GI50 ([18]; OVCAR-5, five dose 0.01–100 µM, 48 h, read-out: GI50): 81.3 nM
GI50 [19, 28]: 18.5 nM
GI50 ([20]; SK-OV-3, five dose 0.01–100 µM, 48 h, read-out: GI50): 31.7 nM
GI50 [21, 28]: 62.9 nM
GI50 ([22]; TK-10, five dose 0.01–100 µM, 48 h, read-out: GI50): 64.9 nM
GI50 ([23]; MDA-MB-231/ATCC, five dose 0.01–100 µM, 48 h, read-out: GI50): 31.5 nM
GI50 ([24]; HS 578T, five dose 0.01–100 µM, read-out: GI50): 40.9 nM
GI50 ([25]; T-47D, five dose 0.01–100 µM, read-out: GI50): > 100000 nM
GI50 [26, 30]: < 91.2 nM
CC50 ([26]; Homo sapiens, 60 cell): 75900 nM
IC (TGI (total growth inhibition)) ([26]; Homo sapiens, 60 cell): 22400 nM
GI50 [26, 31]: 55 nM

C=C/C=C/C1C(=O)N(c2cc(OC)c(OC)c(OC)c2)C1c1ccc(OC)c(N)c1 (stereo not drawn) [11r, (E)-4-(3-Amino-4-methoxyphenyl)-3-(buta-1,3-dien-1-yl)-1-(3,4,5-trimethoxyphenyl)azetidin-2-one]
Vmax ([1]; 37 °C, 340 nm): 0.0035 mOD/min
Fold Reduction in Vmax [1]: 2.0
GI50 [2]: 36.5 nM
GI50 [3, 29]: 29.5 nM
GI50 ([3]; HL-60, NCI screen): < 34 nM
GI50 [4]: 39.3 nM
GI50 ([5]; MOLT-4, 48 h): 39.6 nM
GI50 ([6]; RPMI-8226, 48 h): 34.8 nM
GI50 [7]: 33.5 nM
GI50 ([8]; NCI-H226, 48 h): 56.4 nM
GI50 [9]: 57.9 nM
GI50 ([10]; NCI-H460, 48 h): 33.2 nM
GI50 [11]: 16.9 nM
GI50 ([12]; SF-295, 48 h): 30.1 nM
GI50 ([13]; SF-539, 48 h): 39 nM
GI50 [27]: 64.9 nM
GI50 ([14]; U-251, 48 h): 35.7 nM
GI50 ([15]; DU-145, 48 h): 26 nM
GI50 ([16]; MDA-MB-435, 48 h): 22.1 nM
GI50 ([17]; SK-MEL-28, 48 h): > 100000 nM
GI50 ([18]; OVCAR-5, 48 h): 93.7 nM
GI50 [19]: 19.6 nM
GI50 ([20]; SK-OV-3, 48 h): 35.6 nM
GI50 [21]: 59.1 nM
GI50 ([22]; TK-10, 48 h): 74.8 nM
GI50 ([23]; MDA-MB-231, 48 h): 31.5 nM
IC50 ([23]; MDA-MB-231, 48 h, read-out: Antiproliferative Activity IC50): 33.7 nM
GI50 ([24]; Hs-578T): 53 nM
GI50 [25]: > 100000 nM
GI50 [26, 30]: < 91.2 nM
CC50 ([26]; Homo sapiens, 60 cell): 77600 nM
IC (TGI (total growth inhibition)) ([26]; Homo sapiens, 60 cell): 38000 nM
GI50 [26, 31]: 91.2 nM
